IC50 and solubility data for three compounds are collected here from patent US20200289514A1, “Novel Pyrazolo Pyrimidine Derivatives” (Novartis AG, priority 2015, published 2020).

In brackets after ≈: the same amount, converted by molar mass. Where two headings read alike, the source gives them in different places.

In data set [1] the target is T1, C-domain of MALT1 (amino acids 329-824) (Homo sapiens, UniProt Q9UDY8).
T1 sequence (Q9UDY8 329-824): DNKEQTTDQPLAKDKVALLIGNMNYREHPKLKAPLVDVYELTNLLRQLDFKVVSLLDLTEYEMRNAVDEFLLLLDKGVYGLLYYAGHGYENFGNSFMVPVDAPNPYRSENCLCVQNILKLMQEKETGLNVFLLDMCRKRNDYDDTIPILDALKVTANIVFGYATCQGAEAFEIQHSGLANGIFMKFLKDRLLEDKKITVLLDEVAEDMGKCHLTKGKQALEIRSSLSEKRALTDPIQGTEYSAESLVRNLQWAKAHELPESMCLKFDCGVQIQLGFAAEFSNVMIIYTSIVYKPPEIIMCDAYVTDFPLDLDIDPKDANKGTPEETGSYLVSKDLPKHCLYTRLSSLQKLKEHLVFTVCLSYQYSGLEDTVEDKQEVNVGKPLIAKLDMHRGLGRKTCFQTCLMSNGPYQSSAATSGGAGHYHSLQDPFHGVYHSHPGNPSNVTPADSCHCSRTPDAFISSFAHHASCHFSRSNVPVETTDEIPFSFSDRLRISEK
Briefly: MALT1 Biochemical Assay - Version 1 (fluorescence lifetime).
Method: The readout parameter is the increase of fluorescence lifetime over time, proportional to enzyme activity.
The assay employs a short peptide substrate labeled with the single fluorophore PT14 as a fluorescence lifetime probe sensitive to the cleavage state of the substrate (PT14: 6-(9-oxo-9H-acridin-10-yl)-hexanoate, AssayMetrics, UK). […] Test compounds were dissolved in 100% (v/v) DMSO or a mixture containing 90% (v/v) DMSO and 10% (v/v) H2O at a stock concentration of 100 mM. Serial dilutions of test compounds were prepared using either 100% (v/v) DMSO or a mixture containing 90% (v/v) DMSO and 10% (v/v) H2O.

Data set [2] deals with T1, C-domain of MALT1 (amino acids 329-824). As to the kind of experiment: MALT1 Biochemical Assay - Version 2 (fluorescence intensity). Further details: C-domain of MALT1 (amino acids 329-824). Conditions: fluorescence intensity readout, Rh110 substrate. The method, then:
Alternatively the biochemical activity of some examples, namely example 43 and the Reference compound, were determined by measuring fluorescence intensity as described below:
MALT1 Biochemical Assay—Version 2:
The readout parameter is the increase of fluorescence intensity, proportional to enzyme activity.
The assay employs a short peptide substrate labeled with the fluorophore Rhodamine 110 (Rh110) as a fluorescence probe sensitive to the cleavage state of the substrate. The peptide substrate has the following sequence: Ac-Leu-Arg-Ser-Arg^Rh110-dPro (Product number BS-3027, Biosyntan, Germany; within the substrate sequence, A indicates the scissile bond). […] The assay was established for the 384-well plate format using black microtiter well plates. Test compounds were dissolved in 100% (v/v) DMSO or a mixture containing 90% (v/v) DMSO and 10% (v/v) H2O at a stock concentration of 100 mM. Serial dilutions of test compounds were prepared using either 100% (v/v) DMSO or a mixture containing 90% (v/v) DMSO and 10% (v/v) H2O.
y=A2+(A1−A2)/(1+(x/IC50)^ p) where y is the %-inhibition at the inhibitor concentration, x. A1 is the lowest inhibition value, and A2 the maximum inhibition value. The exponent, p, is the Hill coefficient.

In the next data set the test system is Human IL2 promoter. As to the kind of experiment: Human IL2 promoter reporter gene assay (RGA) in Jurkat cells. The data set is classed as cell-based. As to conditions: Jurkat clone K22 290_H23, anti-CD28 mAb + PMA, 5.5 h. The method, then: Human IL2 Promoter Reporter Gene Assay (RGA) in Jurkat Cells
The transfected Jurkat clone K22 290_H23 was propagated in RPMI 1640 supplemented with 10% heat inactivated fetal calf serum, 50 μM 2-mercaptoethanol and 1 mg/ml Geneticin. The cell concentration should not exceed 1×10e6/ml during culturing. The cells should not exceed passage 30. Prior to the assay the cells were washed and prepared to the concentration of 2×10e6 cells/ml.
Compound dilutions were made as 2×-concentrated solutions then diluted ½ by addition to cells. Two hundred and fifty μl of compound dilution and 250 μl of cells were mixed together in wells of a 96-deep well plate. Cells/compounds premix were incubated 30 min at 37° C. and 5% CO2 directly in the deep well plate.
After pre-incubation of cells with compounds, cells were stimulated with anti-CD28 mAb (clone 15E8) at 3 μg/ml+PMA at 1 μg/ml. Both co-stimulants were diluted in culture medium at a 10×-concentrated solution. 10 μl of co-stimulants were pipetted into the white 96-well plates and 100 μl of cell/compound mix was immediately added in duplicates. The cells were stimulated for 5.5 h at 37° C. and 5% CO2.
After cell stimulation, 50 μl of BriteLitePlus reagent (Perkin Elmer) was added to each well and the bioluminescence was measured with a Wallac EnVision reader (Perkin Elmer).
(In a reporter assay the amount or activity of a reporter protein is the signal.)

Data set [3] in a line: Solubility in aqueous and biorelevant media. The data set is classed as physicochemical. As to conditions: read-out: Solubility (mg/mL) [pH].

By IC50 is commonly meant the concentration that gives 50% inhibition. For the compound `CC(C)[C@H](NC(=O)OCc1ccccc1)C(=O)N[C@@H](C)C(=O)N[C@@H](CC(=O)OC(C)(C)C)C(=O)COC(=O)c1c(Cl)cccc1Cl` [Reference**, reference compound], the values for the IC50 in data set [1] and in data set [2] were 12 nM and 6 nM, respectively.

Regarding `CO[C@@H](C)c1c(NC(=O)Nc2cncc(C#N)c2)cnc2cc(C)nn12` [Example 1, (S)-1-(5-cyanopyridin-3-yl)-3-(7-(1-methoxyethyl)-2-methylpyrazolo [1,5-a]pyrimidin-6-yl)urea], the IC50 in the data set on Human IL2 promoter came to 133 nM; in data set [1], 92 nM. Also, the solubility in data set [3] (19.12 mM Sodium Maleate Fasted state simulated intestinal fluid (FaSSIF) pH 6.5, [pH] 6.63) was 0.018 mg/mL (≈ 51.2 µM); in data set [3] (FaSSIF pH 6.5, [pH] 6.56) it was 0.022 mg/mL (≈ 62.6 µM); in data set [3] (Fed state intestinal fluid FeSSIF pH 5.8, [pH] 5.85), 0.027 mg/mL (≈ 76.8 µM); in data set [3] (Simulated Gastric Fluid (SGF) pH 2.0, [pH] 2.00), 0.024 mg/mL (≈ 68.3 µM); in data set [3] (Water, [pH] 7.65), 0.019 mg/mL (≈ 54.1 µM); in data set [3] (aqueous buffer, 100 mM Sodium Acetate pH 4.0, [pH] 4.04), 0.019 mg/mL (≈ 54.1 µM). Further, the solubility in data set [3] (simulated gastric fluid, HCl/KCl pH 1.0, [pH] 1.10) was 0.049 mg/mL (≈ 139 µM).

As to `CO[C@@H](C)c1c(NC(=O)Nc2cnc(C(N)=O)c(Cl)c2)cnc2cc(F)nn12` [Example 43, (S)-3-chloro-5-(3-(2-fluoro-7-(1-methoxyethyl)pyrazolo[1,5-a]pyrimidin-6-yl)ureido)picolinamide], the IC50 with Human IL2 promoter was determined as 69 nM; in data set [2] it was 8 nM.
